Assay results reported in US9566262B2, “Itch suppression by fucoxanthin” (THE RITSUMEIKAN TRUST, priority 2015, dated 2017).
“Also recorded” adds a separate entry of the source.

What was measured:
NF-κB-luc = test: Luciferase reporter assay in HEK293 cells; type: cell-based; details: HEK293, 0.1, 1 or 10 μM for 48 hours, vs DMSO
Text: (§1) The plasmids pGL3-Cebpα promoter-luc and pGL3-Mitf1 promoter-luc were provided by Dr. Hua Huang (University of Colorado school, Denver, USA). The plasmid NF-κB-luc was purchased from Agilent Technologies (Santa Clara, Calif.). The GATA-responsive reporter vector was provided by Dr. Ishijima (Takasaki University of Health and welfare, Gunma, Japan). Three GATA motifs from mouse α-1 globulin gene (5′-TGATAA-3′) were tandemly inserted into Sma I site of pRBGP3. HDC promoter was provided by Dr. Ootsu (Tohoku University school of Medicine, Sendai, Japan) and cloned into Kpn I-Hind III site of pGL4.10 (Hdc promoter-luc). The reporter assay was performed according to the method described in Kanatani, N. et al. Briefly, HEK293 cells were transfected with each of the luciferase constructs (0.2 μg) or pRL-CMV (Promega, Madison, Wis.) (0.001 μg). At 3 hours after transfection, the cells were treated with fucoxanthin (0.1 μM, 1 μM or 10 μM) or DMSO for 48 hours and reporter assay was performed using Dual-Luciferase® Reporter Assay System (Promega). Luciferase activity was measured using luminometer model TD20/20n (Turner BioSystems, Sunnyvale, Calif.) and normalized to Renilla luciferase activity expressed by CMV promoter.

Mitf1-luc = test: Luciferase reporter assay in HEK293 cells; type: cell-based; details: HEK293, 0.1, 1 or 10 μM for 48 hours, vs DMSO
Text: as §1

Hdc-luc = test: Luciferase reporter assay in HEK293 cells; type: cell-based; details: HEK293, 0.1, 1 or 10 μM for 48 hours, vs DMSO
Text: as §1

Cebpα-luc = test: Luciferase reporter assay in HEK293 cells; type: cell-based; details: HEK293, 0.1, 1 or 10 μM for 48 hours, vs DMSO
Text: as §1

NC/Nga mice [1] = test: BrdU uptake in auricular lymph node cells of NC/Nga mice (ELISA); type: in vivo; details: topical application for 5 weeks, BrdU i.p. on day 34, vs Vaseline
Text: On day 12, day 19, day 26 and day 33 after starting application of Vaseline or fucoxanthin, 0.8% picryl chloride (PiCl) was further applied to the back skin of the mice. The behaviors of the mice were observed by video monitoring. On day 34 after starting application of Vaseline or fucoxanthin, bromodeoxyuridine (BrdU, Nacalai Tesque) ([…]) was intraperitoneally administered to the mice. At 5 weeks after starting application of Vaseline or fucoxanthin, the time each mouse spent for scratching behavior in 10 minutes was measured by video monitoring. Then, the mice were sacrificed and the auricular lymph node, blood and skin were obtained. Serum IgE content was determined by enzyme-linked immunosorbent assay (ELISA) using Mouse IgE Assay Kit (Morinaga Institute of Biological Science, Inc.). The auricular lymph node was digested with 0.1% trypsin/0.1% collagenase, the obtained dissociated cells were suspended by pipetting, and the enzyme reaction was stopped by adding Dulbecco's modified Eagle medium (DMEM) containing 10% fetal bovine serum (Wako Pure Chemical Industries, Ltd.). BrdU uptake was determined by ELISA using Cell Proliferation ELISA, BrdU (Colorimetric) (Roche Diagnostics K.K.).

NC/Nga mice [2] = test: Swelling (length) of the auricular lymph node in NC/Nga mice; type: in vivo; details: topical application for 5 weeks, PiCl-sensitized, vs Vaseline
Text: NC/Nga mice (5 weeks old, female) were purchased from Japan SLC, Inc. […] On day 12, day 19, day 26 and day 33 after starting application of Vaseline or fucoxanthin, 0.8% picryl chloride (PiCl) was further applied to the back skin of the mice. The behaviors of the mice were observed by video monitoring. On day 34 after starting application of Vaseline or fucoxanthin, bromodeoxyuridine (BrdU, Nacalai Tesque) (0.[…] weight) was intraperitoneally administered to the mice. At 5 weeks after starting application of Vaseline or fucoxanthin, the time each mouse spent for scratching behavior in 10 minutes was measured by video monitoring. Then, the mice were sacrificed and the auricular lymph node, blood and skin were obtained. Serum IgE content was determined by enzyme-linked immunosorbent assay (ELISA) using Mouse IgE Assay Kit (Morinaga Institute of Biological Science, Inc.). […] BrdU uptake was determined by ELISA using Cell Proliferation ELISA, BrdU (Colorimetric) (Roche Diagnostics K.K.). […] Also, serum IgE levels and swelling of the auricular lymph nodes of the mice were determined in the same manner as described in Example 2.

[3] = system: bone marrow-derived mast cells (BMMCs); test: Granule formation in BMMCs, tryptase immunostaining; type: cell-based, mice; details: 10 μM, vs control-treated cells
Method: Mature mast cells were prepared in the same manner as described in Example 5. The BMMCs obtained were mounted on a glass slide and heat-fixed. The analysis of the preparation was performed according to the method described in Kosaka, T., Fukui, R., Matsui, M. et al. (2014) “RAGE, Receptor of Advanced Glycation Endoproducts, Negatively Regulates Chondrocytes Differentiation.” PLoS ONE 9(10): e108819. Briefly, the cells were reacted with a mouse anti-mast cell tryptase antibody (AB2378, Abcam, Tokyo, Japan) and then reacted with an FITC-conjugated anti-mouse IgG (Santa Cruz Biotechnology, Inc.) and 1 μg/mL DAPI (4′,6-diamino-2-phenylindole dihydrochloride). The fluorescent image was analyzed by EVOS® FL Cell Imaging System (Life Technologies Corp).
To confirm where the effect of fucoxanthin on granule formation in mast cells is specific rather than common to carotenoids, we compared granule formation between fucoxanthin-treated and astaxanthin-treated BMMCs by immunostaining of tryptase. The immunostaining assay was performed in the same manner as described in Example 6.

NC/Nga mice [4] = test: Transdermal water loss (TEWL) in the skin of NC/Nga mice; type: in vivo; details: topical application plus PiCl, at 5 weeks, vs Vaseline
Method: Transdermal water loss (TEWL) in the skin of the mice treated with fucoxanthin was also measured and compared with that in the skin of the mice treated with tacrolimus.

filaggrin = test: Semi-quantitative immunoblot of skin proteins of NC/Nga mice; type: in vivo; details: topical treatment for 5 weeks, vs Vaseline
Method: (§2) The immunoblot analysis was performed according to the method described in Kosaka, T. et al. (supra). Mice skin proteins were analyzed by SDS-10% polyacrylamide gel electrophoresis. The blots were incubated with a rabbit anti-filaggrin antibody (Santa Cruz Biotechnology, Inc., Santa Cruz, Calif.), a rabbit anti-actin antibody (Santa Cruz Biotechnology, Inc., Santa Cruz, Calif.) or a rabbit anti-loricrin antibody (Covance, Berkeley, Calif.), and then reacted with a horseradish peroxidase-conjugated anti-rabbit IgG or anti-donkey IgG (Santa Cruz Biotechnology, Inc.).

loricrin = test: as above; type: in vivo; details: topical treatment for 5 weeks, vs Vaseline
Method: as §2

## CC(=O)O[C@H]1CC(C)(C)C(=C=C/C(C)=C/C=C/C(C)=C/C=C/C=C(C)/C=C/C=C(\C)C(=O)C[C@@]23O[C@]2(C)C[C@@H](O)CC3(C)C)[C@](C)(O)C1 [fucoxanthin]
NF-κB-luc
  NF-κB activity (NFκB-luc): not affected
Mitf1-luc
  Mitf1-luc reporter activity: not regulated
Hdc-luc
  Hdc-luc reporter activity: not regulated
Cebpα-luc
  Cebpα-luc reporter activity: not regulated
NC/Nga mice [1]
  BrdU uptake (cell proliferation in the auricular lymph node): not affected
NC/Nga mice [2]
  swelling of the auricular lymph node (ear swelling): neither ear swelling (FIG. 9A) nor serum IgE level (FIG. 9B) were affected; also recorded: failed to attenuate lymph inflammation; also recorded: not affected
[3]
  granule formation (tryptase-positive cells / immunoreactivity against tryptase): remarkably reduced; also recorded: No tryptase-positive cell; also recorded: suppressed granule formation; also recorded: almost completely inhibited granule formation
NC/Nga mice [4]
  transdermal water loss (TEWL): remarkably inhibited moisture evaporation
filaggrin
  filaggrin expression level in skin (western blot): elevated
loricrin
  loricrin expression level in skin (western blot): elevated
